In the OligoGym collection:
Where “and” joins values, the source holds several entries; their conditions need not be identical. Identical values can stand only once. After the bases stand the sugars from the 5' end (letter, count) and the backbone: PS all phosphorothioate, else s phosphorothioate and o phosphodiester by linkage. Methylation of C is not given here. e = 2'-O-(2-methoxyethyl) (MOE); d = 2'-deoxy (DNA)

Molecular target: DGAT2
Details: ASO

| Sequence | target mRNA inhibition (HepG2, 0.12 µM) | target mRNA inhibition (HepG2, 20 µM) | target mRNA inhibition (HepG2, 2.5 µM) | target mRNA inhibition (HepG2, 10 µM) |
| --- | --- | --- | --- | --- |
| CAGCCAAGTGAAGTAGAGCA (sugars e5 d10 e5, PS) | 41% |  |  |  |
| CAGCCTGGACAAGTCCTGCC (sugars e2 d13 e5, PS) | 72% |  |  |  |
| CAGGAAGGCACAGAAAAGTG (sugars e5 d10 e5, PS) | 28% |  |  |  |
| CAGGACCCACTGGAGCACTG (sugars e5 d10 e5, PS) | 80% | 83% |  |  |
| CAGGTAGAGTTCTATTGCTT (sugars e5 d10 e5, PS) |  |  | 68% and 55% | 89% and 82% |
| CAGGTTCATCTGCCTTGACG (sugars e5 d10 e5, PS) |  |  | 69% | 72% |
| CAGGTTGTGTGTCTTCACCA (sugars e5 d10 e5, PS) | 68% and 76% | 87% |  | 74% |
| CAGTGCCTACAGCAGAGGGA (sugars e5 d10 e5, PS) | 0% |  |  |  |
| CAGTGCTTTCTAAGTACCCT (sugars e5 d10 e5, PS) |  |  | 68% and 69% | 91% and 86% |
| CAGTGGGCCCCAGGTGGCTC (sugars e5 d10 e5, PS) | 46% |  |  |  |
| CATACTGGCATCTGGCAGGG (sugars e5 d10 e5, PS) |  |  | 65% | 83% |
| CATTCTTTGAAAGCAAATAG (sugars e5 d10 e5, PS) | 15% |  |  |  |
| CATTGCCACTCCCATTCTTT (sugars e3 d14 e3, PS) | 46% |  |  |  |
| CCAACTCTCAGCTACTCCCC (sugars e5 d10 e5, PS) |  |  | 95% | 79% |
| CCACAGGGCCCTTTCCAGAA (sugars e5 d10 e5, PS) |  |  | 58% and 53% | 87% and 85% |
| CCACTGGAGCACTGAGATGA (sugars e3 d14 e3, PS) | 62% |  |  |  |
| CCAGCTGGATGGGAAAGTAG (sugars e5 d10 e5, PS) | 24% |  |  |  |
| CCAGGGCCTCCATGTACATG (sugars e2 d13 e5, PS) | 69% |  |  |  |
| CCAGTTTCGGACCCACTGTG (sugars e5 d10 e5, PS) | 83% | 65% | 28% | 31% |
| CCATGTACATGGTGTGGTAC (sugars e5 d10 e5, PS) | 52% |  |  |  |
| CCCACTGGAGCACTGAGATG (sugars e3 d14 e3, PS) | 75% |  |  |  |
| CCCAGATTTAGCCACCACCT (sugars e5 d10 e5, PS) |  |  | 56% | 72% |
| CCCAGTACTTTCTTCTCATG (sugars e5 d10 e5, PS) |  |  | 72% | 96% |

| Sequence | target mRNA inhibition (HepG2, 0.12 µM) | target mRNA inhibition (HepG2, 20 µM) | target mRNA inhibition (HepG2, 2.5 µM) | target mRNA inhibition (HepG2, 10 µM) |
| --- | --- | --- | --- | --- |
| CCCAGTTTCGGACCCACTGT (sugars e2 d13 e5, PS) | 70% |  |  |  |
| CCCAGTTTCGGACCCACTGT (sugars e3 d14 e3, PS) | 76% |  |  |  |
| CCCAGTTTCGGACCCACTGT (sugars e5 d10 e5, PS) | 85% | 57% | 24% and 25% | 33% |
| CCCATCTCCCAGACCCCTCG (sugars e5 d10 e5, PS) | 12% |  |  |  |
| CCCTCTTAGAAGTAATGCTT (sugars e5 d10 e5, PS) |  |  |  | 85% and 89% |
| CCGGAGTAGGCGGCTATGAG (sugars e5 d10 e5, PS) | 37% |  |  |  |
| CCTCCTTAGCTTTAATCCAG (sugars e5 d10 e5, PS) |  |  | 43% | 82% |
| CCTCTGCTTCTTGGGCATCT (sugars e5 d10 e5, PS) |  |  | 92% and 91% | 91% and 89% |
| CCTGGACAAGTCCTGCCCAT (sugars e2 d13 e5, PS) | 59% |  |  |  |
| CCTGGTGGTCAGCAGGTTGT (sugars e5 d10 e5, PS) | 64% |  |  |  |
| CGAAGATCACCTGCTTGTAC (sugars e5 d10 e5, PS) | 63% |  |  |  |
| CGCGCAGGACCCCGGAGTAG (sugars e2 d13 e5, PS) | 67% |  |  |  |
| CGGACTGAATGTCACCT (sugars e3 d10 e4, PS) |  |  | 60% and 68% | 87% and 83% |
| CTCAGAGACTCAGCCGCACC (sugars e2 d13 e5, PS) | 43% |  |  |  |
| CTCCTGTTTGATGGGTAAAA (sugars e5 d10 e5, PS) |  |  | 90% | 80% |
| CTGCATAGCTGAGCAAATCC (sugars e5 d10 e5, PS) |  |  | 52% | 70% |
| CTGCCACCTTCCAGGGAATA (sugars e5 d10 e5, PS) | 27% |  |  |  |
| CTGCCATTTAATGAGCTTCA (sugars e5 d10 e5, PS) |  |  |  | 94% and 95% and 89% |
| CTGCTTGTACACTTCATTCT (sugars e5 d10 e5, PS) | 58% |  |  |  |
| CTGGACAAGTCCTGCCCATC (sugars e2 d13 e5, PS) | 58% |  |  |  |
| CTGGACAAGTCCTGCCCATC (sugars e5 d10 e5, PS) | 77% |  |  |  |
| CTGGATGGGAAAGTAGTCTC (sugars e5 d10 e5, PS) | 38% |  |  |  |
| CTGTGAGGCCAAGGACAGAG (sugars e5 d10 e5, PS) |  |  | 50% | 81% |

| Sequence | target mRNA inhibition (HepG2, 0.12 µM) | target mRNA inhibition (HepG2, 20 µM) | target mRNA inhibition (HepG2, 2.5 µM) | target mRNA inhibition (HepG2, 10 µM) |
| --- | --- | --- | --- | --- |
| CTGTGCTCTGTGGGCTCCTC (sugars e5 d10 e5, PS) |  |  | 57% | 89% |
| CTTCTGGACCCATCGGCCCC (sugars e5 d10 e5, PS) | 30% |  |  |  |
| CTTCTTCTGGACCCATCGGC (sugars e5 d10 e5, PS) | 27% |  |  |  |
| CTTGGGTGTGTTCCAGTCAA (sugars e5 d10 e5, PS) | 5% |  |  |  |
| CTTGTGCTTGTCGAAGAGCT (sugars e5 d10 e5, PS) |  |  | 33% | 66% |
| CTTTGAAATCCAATGCACCT (sugars e5 d10 e5, PS) |  |  | 65% | 92% |
| GAAATCCAATGCACCTTGTA (sugars e5 d10 e5, PS) |  |  | 63% | 94% |
| GAAGTCAGGCCAAGTGCCAA (sugars e5 d10 e5, PS) | 26% |  |  |  |
| GAATGGTGTGTTGGCTCCCT (sugars e5 d10 e5, PS) |  |  | 54% | 75% |
| GACAAAGTCTATCAGGATGC (sugars e5 d10 e5, PS) |  |  | 88% and 67% | 92% and 91% |
| GACACACAATATCCATGGAC (sugars e5 d10 e5, PS) |  |  | 72% | 93% |
| GACTCAGTGTCCTCCTTAGC (sugars e5 d10 e5, PS) |  |  |  | 73% |
| GACTTCCCTTCACAGAATCC (sugars e5 d10 e5, PS) | 5% |  |  |  |
| GAGATGGTGATAAGGCAGCA (sugars e5 d10 e5, PS) |  |  | 46% and 50% | 80% |
| GAGCACTTGATCTGGGACCC (sugars e5 d10 e5, PS) |  |  | 80% and 71% | 92% and 91% |
| GAGCTCAGAGACTCAGCCGC (sugars e3 d14 e3, PS) | 89% |  |  | 72% and 73% |
| GAGTAGGCGGCTATGAGGGT (sugars e5 d10 e5, PS) | 11% |  |  |  |
| GAGTATAGAAATTTCACTGA (sugars e5 d10 e5, PS) | 44% |  |  |  |
| GAGTCTGTGCTGCATCCATG (sugars e5 d10 e5, PS) | 48% |  |  |  |
| GATAGCATTGCCACTCCCAT (sugars e2 d13 e5, PS) | 62% |  |  |  |
| GATCACCTGCTTGTACACTT (sugars e5 d10 e5, PS) |  |  | 36% | 64% |
| GATTATTCTAAAACTCAAAT (sugars e5 d10 e5, PS) | 0% |  |  |  |
| GATTTGTACTTGAATCCAGG (sugars e5 d10 e5, PS) | 34% |  |  |  |

| Sequence | target mRNA inhibition (HepG2, 0.12 µM) | target mRNA inhibition (HepG2, 20 µM) | target mRNA inhibition (HepG2, 2.5 µM) | target mRNA inhibition (HepG2, 10 µM) |
| --- | --- | --- | --- | --- |
| GCAAATAGTCTATGGTGTCC (sugars e5 d10 e5, PS) | 60% |  |  |  |
| GCACAGCGATGAGCCAGCAA (sugars e5 d10 e5, PS) |  |  | 50% and 45% and 69% | 92% and 89% and 94% |
| GCACCAAGGAATGGTGTGTT (sugars e5 d10 e5, PS) |  |  | 16% | 38% |
| GCACCATAATCTGCACAGGT (sugars e5 d10 e5, PS) |  |  | 88% and 86% | 93% and 89% and 92% |
| GCACCTTGTATTAAATACTC (sugars e5 d10 e5, PS) |  |  | 75% | 91% |
| GCAGCAGGTACTCATGTTTG (sugars e5 d10 e5, PS) |  |  | 54% | 75% |
| GCAGCCTGGACAAGTCCTGC (sugars e2 d13 e5, PS) | 77% |  |  |  |
| GCAGGACCCCGGAGTAGGCG (sugars e3 d14 e3, PS) | 70% |  |  |  |
| GCAGGCCTCGGGAAGCACCT (sugars e5 d10 e5, PS) |  |  | 69% and 67% | 93% and 87% |
| GCAGGTTCATCTGCCTTGAC (sugars e5 d10 e5, PS) |  |  | 80% and 65% | 81% and 85% |
| GCCAACAAGTGGGAAATGCA (sugars e5 d10 e5, PS) |  |  | 51% | 80% |
| GCCAAGGACAGAGGTTCAAC (sugars e5 d10 e5, PS) |  |  | 61% | 90% |
| GCCAATGCCTAGGTCACAGT (sugars e5 d10 e5, PS) |  |  | 87% and 93% | 84% and 90% |
| GCCAGGTAAGGCCGTATGCC (sugars e5 d10 e5, PS) | 68% |  |  |  |
| GCCAGTTTCACAAAGCCCTT (sugars e5 d10 e5, PS) | 34% |  |  |  |
| GCCCAGCACCAAGGAATGGT (sugars e5 d10 e5, PS) |  |  | 0% | 59% |
| GCCCAGTTTCGGACCCACTG (sugars e2 d13 e5, PS) | 82% |  |  |  |
| GCCCTCCTCGAAGATCACCT (sugars e5 d10 e5, PS) |  |  | 37% | 76% |
| GCCTCGGTGTCCTCTCCTGT (sugars e5 d10 e5, PS) |  |  | 59% | 83% |
| GCCTGGACAAGTCCTGCCCA (sugars e2 d13 e5, PS) | 78% | 55% | 44% and 45% | 87% |
